Activity calls are given as the source filed them.
Legend:
[1] = biological target: T1, Type-1 angiotensin II receptor (Homo sapiens, UniProt P30556); experiment: AT1 receptor antagonists, dose response, selectivity assay for APJ receptor antagonist project, cell-based, uHTS hits (AID 463214); assay type: functional;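 further: antagonist potency against angiotensin II stimulated AT1 response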
T1 sequence (P30556 whole entry): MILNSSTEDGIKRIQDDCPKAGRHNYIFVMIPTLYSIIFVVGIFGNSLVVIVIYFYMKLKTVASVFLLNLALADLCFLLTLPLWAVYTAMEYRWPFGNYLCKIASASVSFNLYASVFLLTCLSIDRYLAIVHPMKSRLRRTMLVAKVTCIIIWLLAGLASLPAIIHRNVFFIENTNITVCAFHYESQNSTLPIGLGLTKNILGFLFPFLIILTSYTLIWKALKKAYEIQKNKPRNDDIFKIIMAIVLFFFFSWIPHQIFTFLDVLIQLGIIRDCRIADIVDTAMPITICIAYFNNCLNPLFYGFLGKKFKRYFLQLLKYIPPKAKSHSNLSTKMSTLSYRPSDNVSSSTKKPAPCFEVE

Beta-galactosidase = Beta-galactosidase (Escherichia coli, UniProt Q8VNN2); experiment: PubChem AID 485352; assay type: functional
[2] = biological target: T2, Heat shock factor protein 1 (Mus musculus, UniProt P38532); experiment: HSF1 potentiators in luciferase reporter cells, confirmation, cell-based, NIH3T3, luminescence, dose retest (AID 435004); assay type: functional;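 further: stress induced by proteasome inhibitor MG132 added 30 min after compound; luciferase reporter driven by HSF1 response element in NIH3T3 cells; actives raise luminescence as potentiators of the MG132 stress response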
T2 sequence (P38532 whole entry): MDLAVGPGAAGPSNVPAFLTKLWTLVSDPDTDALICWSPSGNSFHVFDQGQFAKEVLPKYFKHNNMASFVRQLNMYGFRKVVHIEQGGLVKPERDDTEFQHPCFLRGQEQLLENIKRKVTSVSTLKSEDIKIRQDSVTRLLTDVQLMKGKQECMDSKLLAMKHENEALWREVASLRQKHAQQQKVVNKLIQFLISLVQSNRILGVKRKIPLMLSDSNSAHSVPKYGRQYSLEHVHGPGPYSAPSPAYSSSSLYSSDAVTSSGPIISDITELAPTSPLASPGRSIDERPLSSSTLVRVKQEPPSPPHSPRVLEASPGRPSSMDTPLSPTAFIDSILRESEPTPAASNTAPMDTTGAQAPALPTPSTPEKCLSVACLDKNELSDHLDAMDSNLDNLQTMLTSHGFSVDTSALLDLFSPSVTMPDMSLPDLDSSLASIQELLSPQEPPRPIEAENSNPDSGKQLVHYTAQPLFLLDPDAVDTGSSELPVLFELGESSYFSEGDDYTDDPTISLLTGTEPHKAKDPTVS

SUMO-activating enzyme [3] = biological target: T3, SUMO-activating enzyme (Homo sapiens, UniProt Q9UBT2); experiment: SUMOylation inhibitor hit validation, confirmation, SUMOylation inhibitor project, biochemical, AlphaScreen (AID 2018); assay type: functional
SUMO-activating enzyme [4] = biological target: T3, SUMO-activating enzyme; experiment: inhibitors of in vitro SUMOylation cascade, primary screen, biochemical, HTRF, uHTS (AID 2006); assay type: protein-complex assay
Vero = Vero cell cytotoxicity, cytotoxicity control for flavivirus capping enzyme inhibitors (AID 588742); assay type: functional; conditions: Chlorocebus sabaeus
Large T antigen = Large T antigen (Simian virus 40, UniProt P03070); assay type: functional, Betapolyomavirus macacae;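 further: Confirmatory-stage PubChem screen for compounds that inhibit SV40 T antigen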
[5] = biological target: T4, Corticotropin-releasing factor receptor 2/Corticotropin-releasing factor-binding protein (Homo sapiens, UniProt P24387+Q13324); experiment: Dose Response confirmation of uHTS hits for small molecule antagonists of the CRF-binding protein and CRF-R2 receptor complex.; assay type: functional; conditions: read-out: IC50_Mean
T4 sequence (Q13324 whole entry): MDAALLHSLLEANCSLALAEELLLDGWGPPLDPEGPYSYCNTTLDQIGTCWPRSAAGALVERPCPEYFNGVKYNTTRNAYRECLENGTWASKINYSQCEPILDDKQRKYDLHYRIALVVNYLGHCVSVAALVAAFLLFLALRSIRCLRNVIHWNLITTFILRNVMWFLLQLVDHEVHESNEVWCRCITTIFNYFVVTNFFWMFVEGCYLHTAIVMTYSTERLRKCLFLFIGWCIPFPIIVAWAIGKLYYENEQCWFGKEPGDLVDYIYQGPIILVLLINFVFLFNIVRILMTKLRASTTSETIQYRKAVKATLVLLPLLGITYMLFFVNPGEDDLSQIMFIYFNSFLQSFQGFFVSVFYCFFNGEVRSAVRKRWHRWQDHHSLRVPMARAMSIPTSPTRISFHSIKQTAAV
T4 sequence (P24387 whole entry): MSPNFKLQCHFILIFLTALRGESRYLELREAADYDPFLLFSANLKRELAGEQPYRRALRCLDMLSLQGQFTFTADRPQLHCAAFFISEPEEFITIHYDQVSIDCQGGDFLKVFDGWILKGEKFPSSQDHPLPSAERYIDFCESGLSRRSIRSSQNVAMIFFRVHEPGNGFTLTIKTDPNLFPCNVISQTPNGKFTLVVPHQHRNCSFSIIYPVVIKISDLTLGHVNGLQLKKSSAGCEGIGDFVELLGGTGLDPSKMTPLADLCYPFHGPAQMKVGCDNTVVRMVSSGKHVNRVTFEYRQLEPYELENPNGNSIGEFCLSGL

[6] = biological target: T4, Corticotropin-releasing factor receptor 2/Corticotropin-releasing factor-binding protein; experiment: activators of CRF receptor 2 with binding protein – uHTS hits, confirmation (AID 602473); assay type: functional; conditions: read-out: EC50_Mean
[7] = biological target: T5, E3 ubiquitin-protein ligase XIAP (Homo sapiens, UniProt P98170); experiment: Counter Screen using XIAP-Bir3 for Chemical Antagonists of Bir1/2 domains of IAP-family anti-apoptotic proteins. [Related pubchem assays (depositor defined):AID1018, AID1449, AID1514, AID1638, AID1749, AID1750, AID488957, AID488963]
[8] = biological target: T6, Short transient receptor potential channel 4 (Mus musculus, UniProt Q9QUQ5); experiment: mouse TRPC4 channel inhibitors, dose response, cell-based, HEK293 TRPC4/mu-opioid, Fluo-4 calcium (AID 434942); assay type: functional;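 further: potency of inhibitors blocking the TRPC4 calcium response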
T6 sequence (Q9QUQ5 whole entry): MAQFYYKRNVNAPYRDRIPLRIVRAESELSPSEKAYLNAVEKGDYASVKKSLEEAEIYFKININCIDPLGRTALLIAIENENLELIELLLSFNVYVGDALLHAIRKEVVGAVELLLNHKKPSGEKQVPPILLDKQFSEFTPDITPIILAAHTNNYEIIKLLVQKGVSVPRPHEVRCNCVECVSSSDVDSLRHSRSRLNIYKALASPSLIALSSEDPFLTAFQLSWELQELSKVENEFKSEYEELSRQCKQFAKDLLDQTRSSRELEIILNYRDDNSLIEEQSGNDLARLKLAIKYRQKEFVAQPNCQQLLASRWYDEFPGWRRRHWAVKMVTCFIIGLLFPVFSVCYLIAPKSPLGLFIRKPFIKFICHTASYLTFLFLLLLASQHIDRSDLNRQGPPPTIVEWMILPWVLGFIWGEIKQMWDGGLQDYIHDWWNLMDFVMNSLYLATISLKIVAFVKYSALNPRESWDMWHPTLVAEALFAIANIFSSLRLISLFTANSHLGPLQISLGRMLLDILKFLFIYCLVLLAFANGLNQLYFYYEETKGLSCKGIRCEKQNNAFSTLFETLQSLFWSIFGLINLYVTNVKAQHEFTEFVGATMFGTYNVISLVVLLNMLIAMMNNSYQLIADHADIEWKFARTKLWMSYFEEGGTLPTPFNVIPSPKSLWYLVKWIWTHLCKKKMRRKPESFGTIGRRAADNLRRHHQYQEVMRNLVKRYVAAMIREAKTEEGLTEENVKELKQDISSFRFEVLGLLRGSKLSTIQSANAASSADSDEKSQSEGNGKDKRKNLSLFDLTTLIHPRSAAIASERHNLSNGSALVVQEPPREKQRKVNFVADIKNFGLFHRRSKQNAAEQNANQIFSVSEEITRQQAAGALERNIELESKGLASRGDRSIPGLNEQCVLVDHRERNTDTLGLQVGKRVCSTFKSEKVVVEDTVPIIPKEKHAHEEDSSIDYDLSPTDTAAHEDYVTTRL

[9] = biological target: T5, E3 ubiquitin-protein ligase XIAP; experiment: XIAP antagonists, biochemical, IAP family, fluorescence polarization (AID 1018); assay type: functional
Genome polyprotein = Genome polyprotein (dengue virus type 2, UniProt P29990); experiment: Dengue-2 NS5 methyltransferase inhibitors, primary screen, biochemical, confirmation dose response (AID 588689); assay type: functional
[10] = biological target: Beta-2 adrenergic receptor (Homo sapiens, UniProt P07550); experiment: beta2AR agonists driving receptor internalization, dose response, cell-based, FAP fluorogen, flow cytometry, cherry pick 1 (AID 588763); assay type: functional
[11] = biological target: T7, Lysosomal acid glucosylceramidase (Homo sapiens, UniProt P04062); experiment: Dose response cell-based high throughput screening assay to identify enhancers of beta-glucosidase activity. [Related pubchem assays: 784 ]; assay type: functional
T7 sequence (P04062 whole entry): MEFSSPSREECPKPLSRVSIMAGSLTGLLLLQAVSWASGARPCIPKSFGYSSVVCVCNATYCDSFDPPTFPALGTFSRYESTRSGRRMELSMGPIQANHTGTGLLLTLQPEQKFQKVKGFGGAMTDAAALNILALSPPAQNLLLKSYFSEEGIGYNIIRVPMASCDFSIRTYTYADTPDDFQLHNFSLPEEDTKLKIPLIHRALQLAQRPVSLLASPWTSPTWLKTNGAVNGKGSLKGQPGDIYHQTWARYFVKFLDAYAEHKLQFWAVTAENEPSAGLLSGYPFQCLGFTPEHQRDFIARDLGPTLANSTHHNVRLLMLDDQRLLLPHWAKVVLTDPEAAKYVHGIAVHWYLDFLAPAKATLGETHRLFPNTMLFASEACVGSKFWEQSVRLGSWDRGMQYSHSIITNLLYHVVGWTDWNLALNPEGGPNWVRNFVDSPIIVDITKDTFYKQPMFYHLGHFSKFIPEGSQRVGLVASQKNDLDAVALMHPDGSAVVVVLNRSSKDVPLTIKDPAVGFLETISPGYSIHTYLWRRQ

[12] = biological target: T8, Long-chain-fatty-acid--AMP ligase FadD28 (Mycobacterium tuberculosis, UniProt P9WQ59); experiment: Fluorescence polarization aasay to screen for inhibitors that compete for the binding of FadD28 to a bisubstrate Measured in Biochemical System Using Plate Reader - 2147-01_Inhibitor_Dose_CherryPick_Activity.; assay type: functional, Mycobacterium tuberculosis H37Rv
T8 sequence (P9WQ59 whole entry): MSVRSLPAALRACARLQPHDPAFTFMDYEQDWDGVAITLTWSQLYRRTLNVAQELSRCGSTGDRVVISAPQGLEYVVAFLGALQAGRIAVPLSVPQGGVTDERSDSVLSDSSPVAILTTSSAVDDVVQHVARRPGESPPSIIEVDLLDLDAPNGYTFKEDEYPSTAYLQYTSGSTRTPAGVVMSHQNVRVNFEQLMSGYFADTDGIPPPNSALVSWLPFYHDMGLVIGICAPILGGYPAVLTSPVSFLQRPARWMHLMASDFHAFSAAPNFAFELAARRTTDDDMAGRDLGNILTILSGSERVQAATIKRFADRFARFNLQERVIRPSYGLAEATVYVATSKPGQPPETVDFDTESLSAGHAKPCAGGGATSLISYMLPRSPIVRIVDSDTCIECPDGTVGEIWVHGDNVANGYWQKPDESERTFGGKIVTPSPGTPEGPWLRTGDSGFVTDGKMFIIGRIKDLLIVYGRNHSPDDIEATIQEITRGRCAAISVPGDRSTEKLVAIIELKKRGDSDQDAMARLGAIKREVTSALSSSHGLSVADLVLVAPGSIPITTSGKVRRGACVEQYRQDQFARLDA

[13] = biological target: Glucose-6-phosphate 1-dehydrogenase (Homo sapiens, UniProt P11413); experiment: human G6PD enzyme inhibitors, dose response, selectivity assay for P. falciparum G6PD inhibitor project, biochemical, fluorescence (AID 504792); assay type: functional
Chain of Glucose-6-phosphate 1-dehydrogenase (P11413 whole entry): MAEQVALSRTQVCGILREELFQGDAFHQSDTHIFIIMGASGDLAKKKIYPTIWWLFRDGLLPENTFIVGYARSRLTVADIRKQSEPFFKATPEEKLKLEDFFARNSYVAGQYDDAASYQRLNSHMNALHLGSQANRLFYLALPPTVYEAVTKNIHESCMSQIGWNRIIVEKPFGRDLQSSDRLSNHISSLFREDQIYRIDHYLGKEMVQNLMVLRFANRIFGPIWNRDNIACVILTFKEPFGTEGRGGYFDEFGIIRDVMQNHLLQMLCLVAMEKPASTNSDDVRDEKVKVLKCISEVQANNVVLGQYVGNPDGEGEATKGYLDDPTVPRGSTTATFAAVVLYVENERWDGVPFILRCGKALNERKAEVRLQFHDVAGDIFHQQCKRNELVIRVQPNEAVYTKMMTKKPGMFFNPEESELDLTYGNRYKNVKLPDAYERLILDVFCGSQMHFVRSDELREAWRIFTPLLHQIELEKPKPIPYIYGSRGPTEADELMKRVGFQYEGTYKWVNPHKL

Chain of Beta-galactosidase (Q8VNN2 whole entry): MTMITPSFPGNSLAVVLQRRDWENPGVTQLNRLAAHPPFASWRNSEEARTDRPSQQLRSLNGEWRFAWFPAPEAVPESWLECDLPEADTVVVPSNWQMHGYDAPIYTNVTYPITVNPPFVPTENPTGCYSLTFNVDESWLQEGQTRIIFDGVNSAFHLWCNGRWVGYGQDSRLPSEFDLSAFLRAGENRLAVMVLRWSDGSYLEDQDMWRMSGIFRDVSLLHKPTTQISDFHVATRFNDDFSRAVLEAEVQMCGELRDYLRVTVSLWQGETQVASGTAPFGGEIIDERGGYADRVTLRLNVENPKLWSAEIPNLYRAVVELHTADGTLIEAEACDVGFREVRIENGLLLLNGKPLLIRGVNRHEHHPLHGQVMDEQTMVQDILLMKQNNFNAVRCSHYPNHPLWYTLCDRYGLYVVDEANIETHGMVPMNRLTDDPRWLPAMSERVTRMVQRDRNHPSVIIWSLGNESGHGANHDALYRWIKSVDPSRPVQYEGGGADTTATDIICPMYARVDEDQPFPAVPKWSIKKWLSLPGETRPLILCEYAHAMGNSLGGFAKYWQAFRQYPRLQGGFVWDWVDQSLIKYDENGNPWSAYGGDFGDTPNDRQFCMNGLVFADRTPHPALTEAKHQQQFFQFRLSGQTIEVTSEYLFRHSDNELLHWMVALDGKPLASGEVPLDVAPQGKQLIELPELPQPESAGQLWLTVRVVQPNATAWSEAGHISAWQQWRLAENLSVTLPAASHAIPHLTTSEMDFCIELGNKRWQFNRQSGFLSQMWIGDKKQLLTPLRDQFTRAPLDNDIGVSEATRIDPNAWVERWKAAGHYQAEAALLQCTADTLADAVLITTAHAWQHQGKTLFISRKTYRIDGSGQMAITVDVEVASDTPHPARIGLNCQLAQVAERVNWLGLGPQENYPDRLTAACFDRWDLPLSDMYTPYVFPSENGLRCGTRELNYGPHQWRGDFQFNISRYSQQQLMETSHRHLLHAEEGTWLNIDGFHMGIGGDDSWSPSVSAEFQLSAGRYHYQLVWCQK
T5 sequence (P98170 whole entry): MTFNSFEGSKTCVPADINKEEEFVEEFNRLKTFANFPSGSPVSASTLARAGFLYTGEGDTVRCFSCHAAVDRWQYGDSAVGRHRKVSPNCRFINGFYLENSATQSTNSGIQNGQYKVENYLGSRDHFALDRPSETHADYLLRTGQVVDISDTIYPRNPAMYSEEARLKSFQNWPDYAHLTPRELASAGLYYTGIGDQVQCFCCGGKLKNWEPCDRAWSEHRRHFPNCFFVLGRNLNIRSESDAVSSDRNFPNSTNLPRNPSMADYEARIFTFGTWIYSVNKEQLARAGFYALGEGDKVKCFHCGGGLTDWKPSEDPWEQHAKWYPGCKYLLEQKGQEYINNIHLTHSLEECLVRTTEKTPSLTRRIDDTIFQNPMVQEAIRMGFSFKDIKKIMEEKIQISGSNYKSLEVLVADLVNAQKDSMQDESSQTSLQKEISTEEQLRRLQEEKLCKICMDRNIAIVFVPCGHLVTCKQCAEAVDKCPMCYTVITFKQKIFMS
Chain of Genome polyprotein (P29990 2492-3391 limits assumed): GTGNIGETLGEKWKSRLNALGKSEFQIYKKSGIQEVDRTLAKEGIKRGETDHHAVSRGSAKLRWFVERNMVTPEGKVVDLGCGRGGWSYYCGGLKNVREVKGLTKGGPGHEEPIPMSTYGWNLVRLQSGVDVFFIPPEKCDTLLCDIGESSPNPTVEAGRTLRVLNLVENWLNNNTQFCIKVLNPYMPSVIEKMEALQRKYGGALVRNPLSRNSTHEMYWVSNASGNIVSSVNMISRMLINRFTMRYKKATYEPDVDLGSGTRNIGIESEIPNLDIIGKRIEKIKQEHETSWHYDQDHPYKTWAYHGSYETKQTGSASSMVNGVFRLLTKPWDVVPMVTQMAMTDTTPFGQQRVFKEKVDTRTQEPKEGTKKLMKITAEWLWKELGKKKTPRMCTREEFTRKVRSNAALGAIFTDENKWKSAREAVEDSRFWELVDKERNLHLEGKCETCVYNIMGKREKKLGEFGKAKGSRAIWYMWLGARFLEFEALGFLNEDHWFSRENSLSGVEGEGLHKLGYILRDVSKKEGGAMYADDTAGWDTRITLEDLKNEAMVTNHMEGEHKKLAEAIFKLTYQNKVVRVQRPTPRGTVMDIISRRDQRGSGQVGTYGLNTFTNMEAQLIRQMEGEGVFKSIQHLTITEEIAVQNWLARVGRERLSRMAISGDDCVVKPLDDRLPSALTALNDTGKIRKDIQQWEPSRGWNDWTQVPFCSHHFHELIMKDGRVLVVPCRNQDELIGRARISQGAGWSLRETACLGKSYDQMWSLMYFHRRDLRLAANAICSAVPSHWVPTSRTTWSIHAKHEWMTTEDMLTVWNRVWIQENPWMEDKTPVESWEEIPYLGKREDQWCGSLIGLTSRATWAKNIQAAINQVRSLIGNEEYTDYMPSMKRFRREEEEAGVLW
T3 sequence (Q9UBE0 whole entry): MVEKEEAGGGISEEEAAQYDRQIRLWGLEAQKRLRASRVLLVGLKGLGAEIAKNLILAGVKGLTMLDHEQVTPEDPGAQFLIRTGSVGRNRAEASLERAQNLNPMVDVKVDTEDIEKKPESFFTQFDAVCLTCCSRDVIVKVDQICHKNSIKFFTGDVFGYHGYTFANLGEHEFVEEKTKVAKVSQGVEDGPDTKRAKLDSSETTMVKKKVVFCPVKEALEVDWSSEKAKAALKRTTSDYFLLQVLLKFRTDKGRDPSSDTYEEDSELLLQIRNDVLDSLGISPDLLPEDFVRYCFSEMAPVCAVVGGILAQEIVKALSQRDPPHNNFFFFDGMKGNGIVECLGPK
T3 sequence (Q9UBT2 whole entry): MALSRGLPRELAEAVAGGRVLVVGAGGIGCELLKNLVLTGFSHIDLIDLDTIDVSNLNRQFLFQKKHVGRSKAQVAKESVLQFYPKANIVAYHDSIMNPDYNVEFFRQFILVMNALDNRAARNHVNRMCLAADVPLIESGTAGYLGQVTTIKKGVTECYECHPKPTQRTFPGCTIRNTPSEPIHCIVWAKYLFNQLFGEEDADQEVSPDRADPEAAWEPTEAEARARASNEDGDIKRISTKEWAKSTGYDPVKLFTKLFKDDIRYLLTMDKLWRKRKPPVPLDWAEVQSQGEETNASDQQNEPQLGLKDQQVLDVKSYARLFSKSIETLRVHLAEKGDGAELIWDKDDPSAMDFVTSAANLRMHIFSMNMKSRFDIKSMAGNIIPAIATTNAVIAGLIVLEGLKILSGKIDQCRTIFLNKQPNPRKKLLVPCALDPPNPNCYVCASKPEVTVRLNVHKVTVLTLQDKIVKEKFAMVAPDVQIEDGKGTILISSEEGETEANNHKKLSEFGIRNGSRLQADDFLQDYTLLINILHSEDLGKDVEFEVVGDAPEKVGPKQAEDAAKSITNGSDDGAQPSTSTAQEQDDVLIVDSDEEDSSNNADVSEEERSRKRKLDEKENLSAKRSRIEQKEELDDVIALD
Chain of Large T antigen (P03070 whole entry): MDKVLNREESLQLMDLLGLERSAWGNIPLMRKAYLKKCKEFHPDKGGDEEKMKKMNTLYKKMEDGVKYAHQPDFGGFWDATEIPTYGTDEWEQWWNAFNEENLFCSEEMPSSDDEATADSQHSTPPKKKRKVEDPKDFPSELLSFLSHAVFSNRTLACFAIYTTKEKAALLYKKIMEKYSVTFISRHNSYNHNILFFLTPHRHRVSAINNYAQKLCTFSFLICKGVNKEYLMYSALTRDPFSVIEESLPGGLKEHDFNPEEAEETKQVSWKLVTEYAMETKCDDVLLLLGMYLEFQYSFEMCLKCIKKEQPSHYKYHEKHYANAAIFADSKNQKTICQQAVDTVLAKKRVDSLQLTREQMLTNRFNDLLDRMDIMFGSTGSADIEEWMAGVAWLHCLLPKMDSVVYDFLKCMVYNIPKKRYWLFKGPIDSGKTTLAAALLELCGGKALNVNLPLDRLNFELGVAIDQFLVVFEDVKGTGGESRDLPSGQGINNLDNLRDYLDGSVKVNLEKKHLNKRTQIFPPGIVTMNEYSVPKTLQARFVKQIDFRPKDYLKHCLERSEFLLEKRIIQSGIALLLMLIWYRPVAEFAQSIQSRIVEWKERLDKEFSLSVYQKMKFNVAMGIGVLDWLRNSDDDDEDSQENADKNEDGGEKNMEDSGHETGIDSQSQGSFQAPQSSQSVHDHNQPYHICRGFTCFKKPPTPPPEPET
Chain of Beta-2 adrenergic receptor (P07550 whole entry): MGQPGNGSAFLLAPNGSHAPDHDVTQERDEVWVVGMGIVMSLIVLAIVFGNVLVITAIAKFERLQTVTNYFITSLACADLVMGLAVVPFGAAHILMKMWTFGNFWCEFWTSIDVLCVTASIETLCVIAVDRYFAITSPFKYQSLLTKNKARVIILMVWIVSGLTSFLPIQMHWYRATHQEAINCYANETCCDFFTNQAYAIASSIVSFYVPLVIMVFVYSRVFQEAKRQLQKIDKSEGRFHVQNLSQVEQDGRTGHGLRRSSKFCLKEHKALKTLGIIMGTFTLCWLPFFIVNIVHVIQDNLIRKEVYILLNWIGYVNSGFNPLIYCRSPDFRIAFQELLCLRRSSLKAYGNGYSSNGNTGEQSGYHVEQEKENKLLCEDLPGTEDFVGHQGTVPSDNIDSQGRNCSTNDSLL

## CC(=O)c1ccc(NC2=c3ccccc3=NC2=O)cc1
[1]
  IC50: 3.1 µM (active)
Beta-galactosidase
  EC50: > 40 µM (inactive)
[2]
  EC50: > 260 µM (inactive)

## CCc1ccc(C(=O)NNc2ccc(Cl)cc2)cc1
[1]
  IC50: 6.08 µM (active)
Beta-galactosidase
  EC50: > 40 µM (inactive)

## CCc1ccc(NC(=O)NNC(=O)c2cc3ccccc3cc2O)cc1
SUMO-activating enzyme [3]
  IC50: 37.2 µM (active)
SUMO-activating enzyme [4]
  IC50: 11.6 µM (active)

## O=C(O)CN1C(=O)/C(=C\C(Br)=C\c2ccccc2)SC1=S
Vero
  CC50: > 40 µM (active)
Large T antigen
  IC50: 53.4 µM (active)

## O=C(O)CN1C(c2ccccc2O)Nc2ccc(Br)cc2C1c1ccccc1 (centres undefined)
[5]
  IC50: 28.6 µM (active)
[6]
  EC50: > 53 µM (inactive)
[7]
  IC50: > 100 µM (inactive)
[8]
  EC50: 5.31 µM (active)
[9]
  IC50: > 100 µM (not active)

## O=S(=O)(Nc1nc2ccccc2nc1NCc1ccco1)c1ccc(Cl)cc1
Vero
  CC50: > 40 µM (active)
Genome polyprotein
  IC50: 91.9 µM (active)

## NC(=O)CC(NC(=O)Cc1cccc2ccccc12)c1ccc(NCCCN2CCCC2=O)c([N+](=O)[O-])c1 (centres undefined)
[10]
  EC50: 0.801 µM (active)

## CC1CCCCN1C(=O)CSc1nc2cc3c(cc2c(=O)n1Cc1ccc2c(c1)OCO2)OCO3 (centres undefined)
[1]
  IC50: > 40 µM (not active)
[11]
  EC50: > 50 µM (not active)
Beta-galactosidase
  EC50: > 40 µM (inactive)

## CCCCCCCCSC1=CC(=O)C(OC)=C(OC)C1=O
Vero
  CC50: > 40 µM (active)
Genome polyprotein
  IC50: 12.5 µM (active)
[12]
  AC50: 30.9 µM (active)
[13]
  IC50: 48.1 µM (inactive)

Source: ChEMBL document CHEMBL1201862, “PubChem BioAssay data set” (2004)
